Laboratory results as given in patent US4724229A, “Arg-arg-arg-vasopressin antagonists” (Smithkline Beckman Corporation, priority 1986, dated 1988).
Numbered stars: 1 amine (or outer) side, 2 acyl side, 3 side chain; on linkers, the order of the positions; unused ones are H or OH. Bridge positions count the residues as written; N and C are the ends. Square brackets hold non-standard residues; d marks the D form. Peptide text beside a SMILES is read from it. X1 = O=C(CC1(S[*:2])CCCCC1)[*:1]

Tests used:
[1] = target: T1, receptor in the porcine renal medullary membrane (vasopressin V2 -receptors) (Sus scrofa, UniProt P32307); experiment: [3H]LVP binding, porcine renal medullary membrane (Kbind); settings: competition with [3H]LVP binding, Kb = IC50/(1 + L/KD)
T1 construct: in the porcine renal medullary membrane; from tissue; host or cells: porcine renal medullary membranes
T1 sequence (P32307 whole entry): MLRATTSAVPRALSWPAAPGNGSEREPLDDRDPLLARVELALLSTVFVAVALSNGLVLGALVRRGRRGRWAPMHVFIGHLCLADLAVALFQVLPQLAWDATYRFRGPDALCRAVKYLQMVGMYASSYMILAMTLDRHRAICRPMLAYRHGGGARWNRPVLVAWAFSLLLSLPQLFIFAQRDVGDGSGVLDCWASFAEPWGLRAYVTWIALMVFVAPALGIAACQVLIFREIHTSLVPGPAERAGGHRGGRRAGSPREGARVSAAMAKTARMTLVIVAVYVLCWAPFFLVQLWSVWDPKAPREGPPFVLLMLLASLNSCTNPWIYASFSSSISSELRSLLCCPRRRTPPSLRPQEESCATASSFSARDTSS
Method: V2 -antagonistic activity toward the natural anti-diuretic hormone (anti-ADH activity) is determined, in vitro, in the medullary tissue of hog or human kidneys and, in vivo, in the hydropenic rat. The in vitro assay procedures for vasopressin stimulated adenylate cyclase activation or vasopressin binding activity are described by F. Stassen et al., J. Pharmacology and Experimental Therapeutics, 223, 50-54 (1982). V1 -antagonistic activity is determined by procedures using the rat thoracic aorta tissue and plasma membranes of rat liver. These procedures are described in the noted Stassen publication and in a publication at the 1st International Conference on Diuretics, Miami, Fla., March (1984). Oxytocin antagonism is determined as described by W. Sawyer et al., Endocrinology, 106 81 (1979). | ^a Kbind is a measure of the affinity of a ligand for a receptor | in the porcine renal medullary membrane. It is derived from the equation | for competitive inhibition Kb = IC50 /(1 + L/KD) where | IC50 is the concentration of the ligand for 50% inhibition of [^ | H]LVP binding, L is the concentration of the ligand, and KD is the | dissociation constant of [^3 H]LVP.

[2] = target: T2, LVP stimulated adenylate cyclase of pig kidney medullary membrane (Sus scrofa, UniProt P32307); experiment: Inhibition of LVP stimulated adenylate cyclase of pig kidney medullary membrane; assay type: biochemical
T2 construct: stimulated adenylate cyclase of pig kidney medullary membrane; from tissue; host or cells: pig kidney medullary membranes
T2 sequence (P32307 whole entry): as above
Method: (§1) V2 -antagonistic activity toward the natural anti-diuretic hormone (anti-ADH activity) is determined, in vitro, in the medullary tissue of hog or human kidneys and, in vivo, in the hydropenic rat. The in vitro assay procedures for vasopressin stimulated adenylate cyclase activation or vasopressin binding activity are described by F. Stassen et al., J. Pharmacology and Experimental Therapeutics, 223, 50-54 (1982). V1 -antagonistic activity is determined by procedures using the rat thoracic aorta tissue and plasma membranes of rat liver. These procedures are described in the noted Stassen publication and in a publication at the 1st International Conference on Diuretics, Miami, Fla., March (1984). Oxytocin antagonism is determined as described by W. Sawyer et al., Endocrinology, 106 81 (1979). | ^b Ki is the inhibition constant measured for inhibition of LVP | stimulated adenylate cyclase of pig kidney medullary membrane, and is | derived from the equation for competitive inhibition as described.

[3] = target: T3, receptor in the human liver membrane tissue (V1) (Homo sapiens, UniProt P37288); experiment: Binding to human liver membranes V1 (Kbind)
T3 construct: in the human liver membrane tissue; from tissue; host or cells: human liver membranes
T3 sequence (P37288 whole entry): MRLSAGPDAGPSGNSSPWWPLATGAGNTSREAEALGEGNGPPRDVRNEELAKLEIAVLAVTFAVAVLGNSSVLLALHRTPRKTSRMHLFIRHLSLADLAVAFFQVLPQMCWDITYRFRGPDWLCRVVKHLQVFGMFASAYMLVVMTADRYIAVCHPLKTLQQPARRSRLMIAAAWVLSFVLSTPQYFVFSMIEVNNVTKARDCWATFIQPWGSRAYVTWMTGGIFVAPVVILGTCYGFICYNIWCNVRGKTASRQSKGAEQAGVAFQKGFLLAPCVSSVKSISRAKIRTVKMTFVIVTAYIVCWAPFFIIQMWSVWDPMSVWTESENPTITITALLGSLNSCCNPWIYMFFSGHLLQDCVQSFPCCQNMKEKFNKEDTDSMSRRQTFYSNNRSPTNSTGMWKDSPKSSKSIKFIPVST
Method: as §1, with “(1979).” for “(1979). | ^b Ki is the inhibition constant measured for inhibition of LVP | stimulated adenylate cyclase of pig kidney medullary membrane, and is | derived from the equation for competitive inhibition as described.”
^d Kbind is a measure of the affinity of a ligand for a receptor
in the human liver membrane tissue. It is derived from the equation in […]

SMILES	Ki [1] [nM]	Ki [2] [nM]	Ki [3] [nM]
CCOc1ccc(C[C@H]2NC(=O)CC3(CCCCC3)SSC[C@@H](C(=O)N[C@@H](CCCNC(=N)N)C(=O)N[C@@H](CCCNC(=N)N)C(=O)N[C@@H](CCCNC(=N)N)C(N)=O)NC(=O)[C@H](CC(N)=O)NC(=O)[C@H](C(C)C)NC(=O)[C@H](Cc3ccccc3)NC2=O)cc1 [No. 1, [1-(β-mercapto-β,β-cyclopentamethylenepropionic acid)-2-(O-ethyl)-D-tyrosine-4-valine-7-arginine-8-arginine-9-arginine]-vasopressin] ([dY](Et)FVNCRRR-NH2; linker N-5 via X1)	2.6	1.54	4.41
CCOc1ccc(C[C@H]2NC(=O)CC3(CCCCC3)SSC[C@@H](C(=O)N[C@@H](CCCNC(=N)N)C(N)=O)NC(=O)[C@H](CC(N)=O)NC(=O)[C@H](C(C)C)NC(=O)[C@H](Cc3ccccc3)NC2=O)cc1 [compound 2] ([dY](Et)FVNCR-NH2; linker N-5 via X1)	9.1		1.3
CCOc1ccc(C[C@H]2NC(=O)CC3(CCCCC3)SSC[C@@H](C(=O)N[C@@H](CCCNC(=N)N)C(=O)N[C@@H](CCCNC(=N)N)C(N)=O)NC(=O)[C@H](CC(N)=O)NC(=O)[C@H](C(C)C)NC(=O)[C@H](Cc3ccccc3)NC2=O)cc1 [compound 3] ([dY](Et)FVNCRR-NH2; linker N-5 via X1)	3.4	1.7	1.3
